The results in this text go back to patent US20230114241A1, “METHODS OF TREATING EPILEPSY USING THE SAME” (Trevena, Inc., priority 2019, published 2023).

Assay [1] concerns the target T1, human sphingosine-1-phosphate receptor 1 (S1P1) (Homo sapiens, UniProt P21453). In words: β-Arrestin2 recruitment assay (PathHunter), S1P1 CHO-K1 cells. The assay is classed as cell-based. The note with it: for Emax: CHO-K1, efficacy normalized to maximum efficacy of fingolimod, read-out: hS1P1 B-arrestin2 SPAN; for EC50: β-arrestin2 recruitment, S1P1, read-out: hS1P1 B-arrestin2 pEC50 (converted). In short, it runs like this:
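Agonist-driven β-arrestin2 recruitment measured by β-galactosidase complementation after 60 min compound exposure at 37 °C and 1 h detection at room temperature. Cells: stable CHO-K1 line expressing tagged human S1P1 with EA-β-arrestin2, plated the night before. Data expressed relative to fingolimod.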
On the technique in general: Arrestin recruitment assays detect the binding of arrestin to an activated receptor.
Target sequence in this assay (P21453 whole entry): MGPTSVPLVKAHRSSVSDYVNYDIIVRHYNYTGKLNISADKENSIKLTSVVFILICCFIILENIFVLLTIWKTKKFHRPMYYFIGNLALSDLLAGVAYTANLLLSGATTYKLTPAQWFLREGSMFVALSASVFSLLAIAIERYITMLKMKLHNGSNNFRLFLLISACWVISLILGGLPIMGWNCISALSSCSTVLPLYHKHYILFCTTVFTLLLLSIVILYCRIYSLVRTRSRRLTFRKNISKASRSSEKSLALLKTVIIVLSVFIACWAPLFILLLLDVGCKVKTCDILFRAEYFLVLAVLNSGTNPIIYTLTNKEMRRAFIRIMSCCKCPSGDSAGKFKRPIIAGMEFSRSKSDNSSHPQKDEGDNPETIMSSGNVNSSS
Target sequence in this assay (P32121 whole entry partner): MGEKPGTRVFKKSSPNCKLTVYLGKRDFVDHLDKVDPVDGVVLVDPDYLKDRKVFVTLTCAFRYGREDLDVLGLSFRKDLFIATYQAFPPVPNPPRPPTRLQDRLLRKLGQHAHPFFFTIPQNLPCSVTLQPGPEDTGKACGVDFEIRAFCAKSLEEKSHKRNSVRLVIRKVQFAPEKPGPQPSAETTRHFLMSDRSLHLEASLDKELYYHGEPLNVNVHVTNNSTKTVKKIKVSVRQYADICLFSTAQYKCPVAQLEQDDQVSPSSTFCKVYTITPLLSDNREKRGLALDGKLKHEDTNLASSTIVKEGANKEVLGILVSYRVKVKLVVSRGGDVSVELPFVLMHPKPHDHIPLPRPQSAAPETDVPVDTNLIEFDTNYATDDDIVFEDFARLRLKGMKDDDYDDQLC

Assay [2] deals with T1, human sphingosine-1-phosphate receptor 1 (S1P1). In words: Inhibition of cAMP production (HTRF cAMP HiRange), S1P1 CHO-K1 cells. The assay is classed as cell-based. The note with it: for Emax: CHO-K1, efficacy normalized to maximum efficacy of fingolimod, read-out: hS1P1 CAMP SPAN; for EC50: inhibition of cAMP production, S1P1, read-out: hS1P1 CAMP pEC50 (converted). In short, it runs like this: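 Intracellular cAMP changes read by TR-FRET (HTRF HiRange, 1 h room temperature) after 30 min compound exposure at 37 °C. Cells: overnight-plated CHO-K1 stably expressing tagged human S1P1 with EA-β-arrestin2. Responses normalized to fingolimod.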
Target sequence in this assay (P21453 whole entry): as the sequence (P21453 whole entry) above

On to `N#Cc1cc(-c2nnc(-c3ccc4[nH]c(=O)oc4c3)o2)ccc1NCC(F)F` [Compound 488, 2-[(2,2-difluoro-ethyl)amino]-5-[5-(2-oxo-2,3-dihydro-1,3-benzoxazol-6-yl)-1,3,4-oxadiazol-2-yl]benzonitrile], for which, in assay [1], the Emax is more than 75% and the EC50 was less than 10 µM. In assay [2], the Emax is less than 75% and the EC50 is less than 0.316 µM.
On to `Cc1occc1-c1noc(-c2ccc3c(c2)nnn3C(C)C)n1` [Compound 491, 5-[3-(2-methylfuran-3-yl)-1,2,4-oxadiazol-5-yl]-1-(propan-2-yl)-1H-1,2,3-benzotriazole], for which, in assay [1], the Emax is more than 75% and the EC50 is less than 10 µM. Further, in assay [2], the Emax is more than 75% and the EC50 is less than 0.316 µM.
With `COCC1(COC)CC(=O)c2cc(-c3nc(-c4ccncc4)no3)ccc2O1` [Compound 494, 2,2-bis(methoxy-methyl)-6-[3-(pyridin-4-yl)-1,2,4-oxadiazol-5-yl]-3,4-dihydro-2H-1-benzopyran-4-one], in assay [1], the Emax was less than 75% and the EC50 was less than 10 µM. For the same molecule, in assay [2], the Emax was less than 75% and the EC50 was more than 0.316 µM.
Take `CCC1(CC)CC(=O)c2cc(-c3nc(-c4ccoc4)no3)ccc2O1` [Compound 495, 2,2-diethyl-6-(3-(furan-3-yl)-1,2,4-oxadiazol-5-yl)chroman-4-one]: in assay [1], the Emax was more than 75% and the EC50 is less than 10 µM. Further, in assay [2], the Emax was more than 75% and the EC50 was less than 0.316 µM.
`CC(C)n1nnc2cc(-c3nc(-c4ccc5nonc5c4)no3)ccc21` [Compound 498, 5-{5-[1-(propan-2-yl)-1H-1,2,3-benzotriazol-5-yl]-1,2,4-oxadiazol-3-yl}-2,1,3-benzoxadiazole]: the results for the Emax in assay [1] and in assay [2] were less than 75% and more than 75%, respectively. In addition, the EC50 is more than 10 µM in assay [1] and less than 0.316 µM in assay [2].
For `CCC1(CC)CC(=O)c2cc(-c3nc(-c4ccc5nonc5c4)no3)ccc2O1` [Compound 500, 6-[3-(2,1,3-benzoxadiazol-5-yl)-1,2,4-oxadiazol-5-yl]-2,2-diethyl-3,4-dihydro-2H-1-benzopyran-4-one] the same measures were less than 75%, less than 75%, more than 10 µM and more than 0.316 µM.
For `CCC1(CC)CC(=O)c2cc(-c3nc(-c4cncc(N)c4)no3)ccc2O1` [Compound 502, 6-(3-(5-aminopyridin-3-yl)-1,2,4-oxadiazol-5-yl)-2,2-diethylchroman-4-one] the same measures were more than 75%, more than 75%, less than 10 µM and less than 0.316 µM.
`Cc1ccccc1-c1nc(-c2ccc3c(c2)nnn3CC(C)(C)CO)no1` [Compound 505, 2,2-dimethyl-3-(5-(5-(o-tolyl)-1,2,4-oxadiazol-3-yl)-1H-benzo[d][1,2,3]triazol-1-yl)propan-1-ol]: in assay [1], the Emax is more than 75% and the EC50 was more than 10 µM. In assay [2], the Emax was less than 75% and the EC50 was more than 0.316 µM.
On to `CCC1(CC)CC(=O)c2cc(-c3ncc(-c4cccnc4)cn3)ccc2O1` [Compound 509, 2,2-diethyl-6-(5-(pyridin-3-yl)pyrimidin-2-yl)chroman-4-one], for which, in assay [1], the Emax was more than 75% and the EC50 is more than 10 µM. Also, in assay [2], the Emax is less than 75% and the EC50 was more than 0.316 µM.
Consider `CCC1(CC)CC(=O)c2cc(-c3ncc(-c4ccncc4)cn3)ccc2O1` [Compound 510, 2,2-diethyl-6-(5-(pyridin-4-yl)pyrimidin-2-yl)chroman-4-one], for which, in assay [1], the Emax is more than 75% and the EC50 was less than 10 µM. In assay [2], the Emax is less than 75% and the EC50 was less than 0.316 µM.
For `CCC1(CC)CC(=O)c2cc(-c3nc(-c4ccnc(NC(C)=O)c4)no3)ccc2O1` [Compound 512, N-(4-(5-(2,2-diethyl-4-oxochroman-6-yl)-1,2,4-oxadiazol-3-yl)pyridin-2-yl)acetamide] the same measures were less than 75%, less than 10 µM, more than 75% and less than 0.316 µM.
On to `CCC1(CC)CC(=O)c2cc(-c3nc(-c4ccnc(N)c4)no3)ccc2O1` [Compound 513, 6-(3-(2-aminopyridin-4-yl)-1,2,4-oxadiazol-5-yl)-2,2-diethyl-chroman-4-one], for which, in assay [1], the Emax is more than 75% and the EC50 is less than 10 µM. Also, in assay [2], the Emax was more than 75% and the EC50 is less than 0.316 µM.
`CC(C)Nc1ccc(-c2nc(-c3ccc4c(c3)C(=O)NCC4)no2)cc1C#N` [Compound 514, 2-(isopropylamino)-5-(3-(l-oxo-1,2,3,4-tetra-hydroisoquinolin-7-yl)-1,2,4-oxadiazol-5-yl)benzonitrile]: in assay [1], the Emax was less than 75% and the EC50 is less than 10 µM. In addition, in assay [2], the Emax was more than 75% and the EC50 is less than 0.316 µM.
For the molecule `Cc1cn(C)nc1-c1noc(-c2ccc3c(c2)nnn3CC(C)(C)O)n1` [Compound 518, 1-{5-[3-(1,4-dimethyl-1H-pyrazol-3-yl)-1,2,4-oxadiazol-5-yl]-1H-1,2,3-benzotriazol-1-yl}-2-methylpropan-2-ol], in assay [1], the Emax is less than 75% and the EC50 was more than 10 µM. For the same molecule, in assay [2], the Emax was more than 75% and the EC50 is more than 0.316 µM.
In the case of `CCC1(CC)CC(=O)c2cc(-c3nc(-c4ccc5ncccc5c4)no3)ccc2O1` [Compound 521, 2,2-diethyl-6-(3-(quinolin-6-yl)-1,2,4-oxadiazol-5-yl)chroman-4-one], in assay [1], the Emax was less than 75% and the EC50 was more than 10 µM. Besides, in assay [2], the Emax is less than 75% and the EC50 is more than 0.316 µM.
`CCC1(CC)CC(=O)c2cc(-c3nc(-c4ccc5cnccc5c4)no3)ccc2O1` [Compound 522, 2,2-diethyl-6-(3-(isoquinolin-6-yl)-1,2,4-oxadiazol-5-yl)chroman-4-one]: the Emax in assay [1] and in assay [2] was more than 75% throughout. Besides, the EC50 is more than 10 µM in assay [1] and more than 0.316 µM in assay [2].
Turning to `COc1ccc(-c2nc(-c3ccc4c(c3)nnn4CC(C)(C)CO)no2)c(C)c1` [Compound 523, 3-(5-(5-(4-methoxy-2-methylphenyl)-1,2,4-oxadiazol-3-yl)-1H-benzo[d][1,2,3]triazol-1-yl)-2,2-dimethyl-propan-1-ol], in assay [1], the Emax is more than 75% and the EC50 is more than 10 µM. Further, in assay [2], the Emax is more than 75% and the EC50 was more than 0.316 µM.
In the case of `Cc1ccsc1-c1nc(-c2ccc3c(c2)nnn3CC(C)(C)CO)no1` [Compound 524, 2,2-dimethyl-3-(5-(5-(3-methylthiophen-2-yl)-1,2,4-oxadiazol-3-yl)-1H-benzo[d] [1,2,3]triazol-1-yl)propan-1-ol], in assay [1], the Emax is less than 75% and the EC50 was less than 10 µM. In assay [2], the Emax was more than 75% and the EC50 is less than 0.316 µM.
For the molecule `COc1ccccc1-c1nc(-c2ccc3c(c2)nnn3CC(C)(C)CO)no1` [Compound 525, 3-(5-(5-(2-methoxy-phenyl)-1,2,4-oxadiazol-3-yl)-1H-benzo[d][1,2,3]triazol-1-yl)-2,2-dimethyl-propan-1-ol], in assay [1], the Emax was more than 75% and the EC50 was more than 10 µM. In addition, in assay [2], the Emax was more than 75% and the EC50 was more than 0.316 µM.
`CC(C)(CO)Cn1nnc2cc(-c3noc(-c4ccccc4Cl)n3)ccc21` [Compound 526, 3-(5-(5-(2-chloro-phenyl)-1,2,4-oxadiazol-3-yl)-1H-benzo[d][1,2,3]triazol-1-yl)-2,2-dimethylpropan-1-ol]: in assay [1], the Emax is more than 75% and the EC50 was more than 10 µM. In assay [2], the Emax is more than 75% and the EC50 is more than 0.316 µM.
As for `CCc1ccccc1-c1nc(-c2ccc3c(c2)nnn3CC(C)(C)CO)no1` [Compound 527, 3-(5-(5-(2-ethylphenyl)-1,2,4-oxadiazol-3-yl)-1H-benzo[d][1,2,3]triazol-1-yl)-2,2-dimethylpropan-1-ol], in assay [1], the Emax is more than 75% and the EC50 is more than 10 µM. Further, in assay [2], the Emax is more than 75% and the EC50 is more than 0.316 µM.
As for `CC(C)(CO)Cn1nnc2cc(-c3noc(-c4ccncc4C(F)(F)F)n3)ccc21` [Compound 528, 2,2-dimethyl-3-(5-(5-(3-(trifluoro-methyl)pyridin-4-yl)-1,2,4-oxadiazol-3-yl)-1H-benzo[d][1,2,3]triazol-1-yl)propan-1-ol], in assay [1], the Emax is less than 75% and the EC50 is more than 10 µM. For the same molecule, in assay [2], the Emax is more than 75% and the EC50 was more than 0.316 µM.
As for `CC(C)(CO)Cn1nnc2cc(-c3noc(-c4cnccc4C(F)(F)F)n3)ccc21` [Compound 529, 2,2-dimethyl-3-(5-(5-(4-(trifluoro-methyl)pyridin-3-yl)-1,2,4-oxadiazol-3-yl)-1H-benzo[d][1,2,3]triazol-1-yl)propan-1-ol], in assay [1], the Emax was less than 75% and the EC50 was less than 10 µM. In addition, in assay [2], the Emax was more than 75% and the EC50 was more than 0.316 µM.
`CCC1(CC)CC(=O)c2cc(-c3ncc(-c4ccccn4)cn3)ccc2O1` [Compound 530, 2,2-diethyl-6-(5-(pyridin-2-yl)pyrimidin-2-yl)chroman-4-one]: the Emax in assay [1] and in assay [2] was more than 75% in each case. The EC50 in assay [1] is more than 10 µM; in assay [2], more than 0.316 µM.
